Measurements from EP4772497A1, “POLYMORPHS OF NITROGEN-CONTAINING HETEROCYCLIC COMPOUNDS, AND USES THEREOF” (BNH Research Co., Ltd., priority 2023, dated 2025).
Converted amounts (≈) assume the structure as drawn.

Experiments:
[1] = Wet granulation simulation experiment (XRPD); assay type: physicochemical; settings: ground, dried 10 minutes
Description: Water or ethanol was added dropwise to about 10 mg of crystalline form C until it was sufficiently wetted. The wet sample was gently ground using a mortar and pestle. After the granulation, the sample was dried under ambient conditions for 10 minutes. Potential changes in form and crystallinity were evaluated by XRPD.
The XRPD results of the wet granulation simulation experiments are shown in Fig. 12, where GNSE1 and GNSE2 represent experiment IDs for water and ethanol, respectively.

[2] = Approximate solubility of crystalline form C in dissolution media by visual observation; assay type: physicochemical; settings: thermodynamic from solid, 37°C per table caption (method: 25°C)
Description: About 4 mg of crystalline form C was weighed into a 4 mL or 8 mL glass vial, and 4 to 9 mL of dissolution medium was added to dissolve the drug substance at 25°C. The approximate solubility was determined by visual observation.
The solvents and solubility results are shown in Table 11 (solubility of crystalline form C at 37°C).

[3] = Bulk stability of crystalline form C under stress conditions (HPLC, XRPD, color); assay type: physicochemical; settings: for Color / Purity (HPLC) Initial purity:99.9%: 1 week
Description: Crystalline form C was placed in an open container at 25°C/92.5% RH, in an open container at 40°C/75% RH, and in a closed container at 60°C for 1 week, respectively. After exposure to the stress conditions, the samples were characterized by XRPD and HPLC, and examined for color changes.
Reference is made to Experimental Method 6 for the HPLC conditions.

Aβ plaques = test: Bielschowsky silver staining of brain sections; assay type: in vivo, mice; settings: 1 mg/kg orally, cerebral cortex, vs vehicle control
Description: To evaluate the efficacy of crystalline form C of the present disclosure in inhibiting amyloid-beta protein accumulation, mouse proteomic profiling array analysis and Bielschowsky silver staining were performed. […]
Bielschowski silver staining (Bielschowski Silver Staining Kit, ab245877, abcam, Cambridge, UK) was performed according to the manufacturer's protocol. 40 µm-thick brain sections of APP/PS1 mice were incubated in a warm 20% silver nitrate solution at 40°C for 15 minutes, followed by four washes with distilled water and three rinses with water for 3 minutes each. The slides were incubated in an ammoniacal silver solution at 40°C for 10 minutes, and then placed in a developer solution (containing 8 drops of 20% formalin, 8 drops of citric acid, and 4 drops of nitric acid in 50 mL H2O) for a few seconds until the tissue sections turned yellow/brown. Subsequently, the slides were placed in aqueous ammonia for 30 seconds. The sections were washed three times with water for 2 minutes each and incubated in a 5% thiosulfate solution for 2 minutes. […]
Statistical analysis was performed using GraphPad Prism 9.5.0 software (San Diego, CA, USA). […] All data are expressed as mean ± SEM.

[4] = Compression simulation experiment (XRPD); assay type: physicochemical; settings: compressed for 5 minutes at 2 MPa, 5 MPa, and 10 MPa
Description: About 5 mg of crystalline form C was compressed for 5 minutes at 2 MPa, 5 MPa, and 10 MPa using a hydraulic press. Potential changes in form and crystallinity were evaluated by XRPD.
The XRPD results of the compression simulation experiments are shown in Fig. 10, where CSE1, CSE2, and CSE3 represent experiment IDs for pressures of 2 MPa, 5 MPa, and 10 MPa, respectively.

[5] = BS1: Solid state, 25°C/92.5% RH, open container
[6] = BS2: Solid state, 40°C/75% RH, open container
[7] = BS3: Solid state, 60°C, closed container

solubility ([2]; aqueous buffer, ES2: pH 4.5 acetate buffer (50mM)): 900 to 1000 µg/mL (≈ 2.87 to 3.19 mM) | solubility ([2]; aqueous buffer, ES3: pH 6.8 phosphate buffer (50mM)): 1800 to 2000 µg/mL (≈ 5.74 to 6.37 mM) | solubility ([2]; simulated gastric fluid, ES1: pH 1.2 HCl buffer (0.2N)): 500 to 600 µg/mL (≈ 1.59 to 1.91 mM) | solubility ([2]; simulated gastric fluid, ES4: SGF, pH 2.0): 400 to 500 µg/mL (≈ 1.27 to 1.59 mM) | solubility ([2]; ES5: FaSSIF-v1, pH 6.5): 1800 to 2000 µg/mL (≈ 5.74 to 6.37 mM) | solubility ([2]; ES6: FeSSIF-v1, pH 5.0): 1800 to 2000 µg/mL (≈ 5.74 to 6.37 mM) | solubility ([2]; ES7: Water): 600 to 700 µg/mL (≈ 1.91 to 2.23 mM) | Color [3, 5]: No color change | Purity (HPLC) Initial purity:99.9% [3, 5]: 99.9% | Color [3, 6]: No color change | Purity (HPLC) Initial purity:99.9% [3, 6]: 99.9% | Color [3, 7]: No color change | Purity (HPLC) Initial purity:99.9% [3, 7]: 99.9%
SMILES: C[C@@H]1CC[C@H](C(=O)O)CN1C(=O)Cc1ccc(F)cc1Cl [Crystalline form C, (3S,6R)-1-(2-(2-chloro-4-fluorophenyl)acetyl)-6-methylpiperidine-3-carboxylic acid]
change in form and crystallinity on granulation with ethanol ([1]; wetted with ethanol): no change in form, but its crystallinity decreased significantly | change in form and crystallinity on granulation with water ([1]; wetted with water): without any change in form or apparent decrease in crystallinity | bulk stability ([3]; from HPLC and XRPD results after 1 week stress): high bulk stability both physically and chemically | Aβ plaques (percent area) (Aβ plaques): reduced Aβ plaques | change in form and crystallinity on compression [4]: without any change in form or apparent decrease in crystallinity
